Ki and Km data for 2 compounds are collected here from article doi:10.1101/2025.03.26.645513v1 (biorxiv, 2025).

What all share (assay): acid ninhydrin cysteine assay, A560
Assay [1] addresses T1, SaCysK (Staphylococcus aureus, UniProt P63871).
T1 sequence (P63871 1-310): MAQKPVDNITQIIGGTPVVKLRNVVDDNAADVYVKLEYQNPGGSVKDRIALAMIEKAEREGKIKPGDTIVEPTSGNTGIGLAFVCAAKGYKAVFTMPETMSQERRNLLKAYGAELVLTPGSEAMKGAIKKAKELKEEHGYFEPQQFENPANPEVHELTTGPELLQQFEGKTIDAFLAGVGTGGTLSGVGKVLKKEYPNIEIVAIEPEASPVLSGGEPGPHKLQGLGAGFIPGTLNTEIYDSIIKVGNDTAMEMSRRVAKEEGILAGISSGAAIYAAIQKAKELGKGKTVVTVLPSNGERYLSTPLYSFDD
Type of assay: biochemical. Particulars: substrate inhibition constant, MOPS, 37 °C, no glycerol.

In assay [2] the target is T1, SaCysK. Particulars: 10 mM OAS; MOPS; 37 °C; no glycerol.
For the next assay, the target named is NgCysK (Neisseria gonorrhoeae, UniProt Q5F9Q2). Particulars: read-out: Khalf; 10 mM OAS; MOPS; 37 °C; no glycerol; cooperative.

Molecules are shown by their SMILES.

Sequence of NgCysK (Q5F9Q2 1-310): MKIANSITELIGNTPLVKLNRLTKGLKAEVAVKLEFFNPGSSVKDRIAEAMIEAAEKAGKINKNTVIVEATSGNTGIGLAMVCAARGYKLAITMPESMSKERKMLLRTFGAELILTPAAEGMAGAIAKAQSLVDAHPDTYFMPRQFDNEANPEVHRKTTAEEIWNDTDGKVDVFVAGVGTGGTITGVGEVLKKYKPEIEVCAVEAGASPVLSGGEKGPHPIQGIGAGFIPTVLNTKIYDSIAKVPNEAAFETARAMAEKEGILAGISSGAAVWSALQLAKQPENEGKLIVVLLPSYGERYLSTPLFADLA

Consider `CC(=O)OC[C@H](N)C(=O)O` [O-acetylserine], for which the Ki on SaCysK [1] (15 mM Na2S) was 6.265 ± 2.489 mM.

On to `S` [sodium sulfide], for which the results for the Km at SaCysK [2] and at NgCysK were 2.31 ± 3.57 mM and 23.6 ± 10.8 mM, respectively. On SaCysK [1] (10 mM OAS), this compound had a Ki of 15.970 ± 12.793 mM.
